Measurements taken from ChEMBL document CHEMBL3817758, “Design and synthesis of dual 5-HT1A and 5-HT7 receptor ligands” (Bioorg Med Chem, 2016).

What was measured:
Assay in all cases: biochemical
[1] = target: T1, 5-hydroxytryptamine receptor 2C (Rattus norvegicus, UniProt P08909)
T1 sequence (P08909 whole entry): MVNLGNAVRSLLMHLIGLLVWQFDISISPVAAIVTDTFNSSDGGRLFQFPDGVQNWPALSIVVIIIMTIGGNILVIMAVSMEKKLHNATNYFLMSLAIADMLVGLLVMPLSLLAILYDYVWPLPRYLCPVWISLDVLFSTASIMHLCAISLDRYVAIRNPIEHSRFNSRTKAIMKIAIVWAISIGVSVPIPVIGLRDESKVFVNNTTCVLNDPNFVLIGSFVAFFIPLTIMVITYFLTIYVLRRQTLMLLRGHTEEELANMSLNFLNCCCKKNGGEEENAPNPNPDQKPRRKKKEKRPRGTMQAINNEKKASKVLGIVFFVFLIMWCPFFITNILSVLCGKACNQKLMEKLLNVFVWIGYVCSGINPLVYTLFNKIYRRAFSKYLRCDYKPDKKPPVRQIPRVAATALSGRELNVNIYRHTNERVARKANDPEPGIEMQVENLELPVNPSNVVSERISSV

[2] = target: T2, D(4) dopamine receptor (Rattus norvegicus, UniProt P30729)
T2 sequence (P30729 whole entry): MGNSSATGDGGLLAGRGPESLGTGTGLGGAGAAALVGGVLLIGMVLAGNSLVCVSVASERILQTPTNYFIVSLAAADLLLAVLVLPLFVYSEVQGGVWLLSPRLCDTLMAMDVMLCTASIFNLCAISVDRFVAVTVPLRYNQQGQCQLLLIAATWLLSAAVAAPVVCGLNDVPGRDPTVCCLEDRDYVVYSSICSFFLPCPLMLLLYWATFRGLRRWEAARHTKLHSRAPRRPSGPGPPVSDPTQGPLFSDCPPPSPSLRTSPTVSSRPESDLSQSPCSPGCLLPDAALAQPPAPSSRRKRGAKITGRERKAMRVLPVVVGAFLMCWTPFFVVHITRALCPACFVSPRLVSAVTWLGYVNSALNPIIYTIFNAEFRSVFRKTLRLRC

[3] = target: D(2) dopamine receptor (Homo sapiens, UniProt P14416)
Sequence of D(2) dopamine receptor (P14416 whole entry): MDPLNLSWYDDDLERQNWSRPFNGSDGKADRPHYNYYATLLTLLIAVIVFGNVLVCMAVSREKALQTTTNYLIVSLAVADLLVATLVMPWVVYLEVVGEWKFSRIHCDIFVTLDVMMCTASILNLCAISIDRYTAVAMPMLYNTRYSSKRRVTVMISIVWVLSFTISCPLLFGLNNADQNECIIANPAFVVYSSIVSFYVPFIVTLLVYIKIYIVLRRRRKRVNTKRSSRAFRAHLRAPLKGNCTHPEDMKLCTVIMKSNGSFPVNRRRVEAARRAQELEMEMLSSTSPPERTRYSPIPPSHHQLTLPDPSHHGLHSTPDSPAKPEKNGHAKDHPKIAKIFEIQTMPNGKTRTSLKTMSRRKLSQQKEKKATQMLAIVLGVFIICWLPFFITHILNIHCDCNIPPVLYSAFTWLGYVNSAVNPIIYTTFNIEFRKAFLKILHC

[4] = target: Sodium-dependent serotonin transporter (Homo sapiens, UniProt P31645)
Sequence of Sodium-dependent serotonin transporter (P31645 whole entry): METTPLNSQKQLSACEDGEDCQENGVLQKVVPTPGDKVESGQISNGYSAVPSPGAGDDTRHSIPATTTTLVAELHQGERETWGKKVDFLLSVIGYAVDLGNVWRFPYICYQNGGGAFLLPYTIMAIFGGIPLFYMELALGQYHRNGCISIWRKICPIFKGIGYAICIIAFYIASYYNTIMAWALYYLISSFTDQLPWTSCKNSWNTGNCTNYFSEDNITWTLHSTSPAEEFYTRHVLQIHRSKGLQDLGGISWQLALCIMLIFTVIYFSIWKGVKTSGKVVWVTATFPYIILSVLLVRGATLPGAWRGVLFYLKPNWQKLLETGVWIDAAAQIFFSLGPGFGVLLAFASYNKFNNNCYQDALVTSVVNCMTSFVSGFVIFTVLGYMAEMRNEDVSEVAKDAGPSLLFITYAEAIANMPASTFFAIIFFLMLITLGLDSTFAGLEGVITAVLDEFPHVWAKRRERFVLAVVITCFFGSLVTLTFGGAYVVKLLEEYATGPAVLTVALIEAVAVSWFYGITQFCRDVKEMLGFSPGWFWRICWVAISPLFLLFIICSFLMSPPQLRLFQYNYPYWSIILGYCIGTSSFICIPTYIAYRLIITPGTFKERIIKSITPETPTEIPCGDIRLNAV

Structure (SMILES)	Ki [1]	Ki [2]	Ki [3]	Ki [4]
NC(=O)c1ccc(C(=O)CCCN2CCc3ccccc3C2)cc1	1890 nM			
O=C1c2ccccc2C(=O)N1CCCCN1CCC2CCCCC2C1 (stereo not given)		> 10000 nM	> 10000 nM	> 10000 nM
COc1ccc(C(=O)CCCN2CCc3ccccc3C2)cc1	1400 nM			
